Experimental findings from ChEMBL document CHEMBL4476867, “Hydroxy formamide derivatives and their use” (2016) are described below.

The target of test [1] is T1, Bone morphogenetic protein 1 (Homo sapiens, UniProt P13497).
T1 sequence (P13497 whole entry): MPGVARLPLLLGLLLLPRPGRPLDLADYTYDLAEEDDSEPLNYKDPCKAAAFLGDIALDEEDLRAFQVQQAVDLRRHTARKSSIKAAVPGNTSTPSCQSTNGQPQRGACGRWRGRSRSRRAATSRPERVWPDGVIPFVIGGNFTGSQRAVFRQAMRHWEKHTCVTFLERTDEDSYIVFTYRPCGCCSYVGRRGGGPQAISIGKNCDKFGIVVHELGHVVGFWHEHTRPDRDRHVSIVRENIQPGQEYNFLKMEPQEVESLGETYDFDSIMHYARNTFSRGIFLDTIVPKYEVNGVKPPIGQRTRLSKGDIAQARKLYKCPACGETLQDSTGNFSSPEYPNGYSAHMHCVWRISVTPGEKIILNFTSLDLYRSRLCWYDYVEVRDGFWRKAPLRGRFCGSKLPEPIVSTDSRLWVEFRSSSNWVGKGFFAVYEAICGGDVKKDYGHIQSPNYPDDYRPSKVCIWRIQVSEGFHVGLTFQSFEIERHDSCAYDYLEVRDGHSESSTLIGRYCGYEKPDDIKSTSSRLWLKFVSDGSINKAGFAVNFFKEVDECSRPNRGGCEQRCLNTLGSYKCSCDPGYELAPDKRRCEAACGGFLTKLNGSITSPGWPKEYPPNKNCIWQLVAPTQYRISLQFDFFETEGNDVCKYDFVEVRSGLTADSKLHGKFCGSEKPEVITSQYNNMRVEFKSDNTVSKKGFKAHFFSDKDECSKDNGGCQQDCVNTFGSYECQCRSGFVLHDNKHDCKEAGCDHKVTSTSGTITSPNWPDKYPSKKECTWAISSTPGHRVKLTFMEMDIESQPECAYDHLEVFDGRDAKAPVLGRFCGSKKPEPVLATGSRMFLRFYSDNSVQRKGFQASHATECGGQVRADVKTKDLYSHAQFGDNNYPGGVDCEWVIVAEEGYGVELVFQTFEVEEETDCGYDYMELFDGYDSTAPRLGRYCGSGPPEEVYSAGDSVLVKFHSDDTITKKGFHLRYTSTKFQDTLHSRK
As to the kind of experiment: Inhibition of C-terminal FLAG-6x-His epitope tagged and N-terminal human RAGE signal sequence tagged human BMP1 (23 to 721 amino acids) expressed in CHO-E1 cells pre-incubated for 10 mins before promyostatin peptide substrate addition and measured after 60 mins using 0.5 nM BMP1 by FRET based assay. The format is cell-based.

A further test deals with Tolloid-like protein 1 (Homo sapiens, UniProt O43897, I156V/N221S/V284A). As to the kind of experiment: Inhibition of recombinant human TLL1 I156V/N221S/V284A mutant expressed in CHOE1A cells pre-incubated for 10 mins before promyostatin peptide substrate addition and measured after 60 mins by FRET based assay. The format is cell-based.
Chain of Tolloid-like protein 1 (O43897 148-1013 I156V/N221S/V284A limits assumed): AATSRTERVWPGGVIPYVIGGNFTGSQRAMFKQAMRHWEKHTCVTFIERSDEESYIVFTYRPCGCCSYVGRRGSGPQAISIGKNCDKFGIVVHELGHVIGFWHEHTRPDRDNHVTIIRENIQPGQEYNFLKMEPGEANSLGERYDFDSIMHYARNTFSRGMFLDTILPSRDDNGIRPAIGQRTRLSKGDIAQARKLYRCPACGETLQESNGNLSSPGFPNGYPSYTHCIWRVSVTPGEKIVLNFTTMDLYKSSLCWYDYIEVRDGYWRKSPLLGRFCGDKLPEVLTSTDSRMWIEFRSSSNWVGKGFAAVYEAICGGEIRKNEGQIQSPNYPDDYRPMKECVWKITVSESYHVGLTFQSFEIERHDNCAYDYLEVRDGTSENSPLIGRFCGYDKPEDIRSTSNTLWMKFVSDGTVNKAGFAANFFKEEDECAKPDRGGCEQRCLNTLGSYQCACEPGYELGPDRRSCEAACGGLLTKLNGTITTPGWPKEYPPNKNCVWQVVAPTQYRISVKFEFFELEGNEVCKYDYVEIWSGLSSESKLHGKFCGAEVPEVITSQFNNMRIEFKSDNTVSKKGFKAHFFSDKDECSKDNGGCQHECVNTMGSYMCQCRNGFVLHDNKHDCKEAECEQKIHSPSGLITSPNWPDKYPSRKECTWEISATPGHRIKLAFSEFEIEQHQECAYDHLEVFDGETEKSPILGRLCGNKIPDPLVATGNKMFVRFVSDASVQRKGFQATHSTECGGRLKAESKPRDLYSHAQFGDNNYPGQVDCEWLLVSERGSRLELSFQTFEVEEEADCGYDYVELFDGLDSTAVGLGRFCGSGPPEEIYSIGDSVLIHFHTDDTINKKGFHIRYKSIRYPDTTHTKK
Test [2] concerns the target T1, Bone morphogenetic protein 1. Nature of the test: Inhibition of C-terminal FLAG-6x-His epitope tagged and N-terminal human RAGE signal sequence tagged human BMP1 (23 to 721 amino acids) expressed in CHO-E1 cells pre-incubated for 10 mins before promyostatin peptide substrate addition and measured after 30 mins using 50 nM BMP1 by FRET based assay. The format is cell-based.

For a further test, the target named is T2, Tolloid-like protein 2 (Homo sapiens, UniProt Q9Y6L7).
T2 sequence (Q9Y6L7 whole entry): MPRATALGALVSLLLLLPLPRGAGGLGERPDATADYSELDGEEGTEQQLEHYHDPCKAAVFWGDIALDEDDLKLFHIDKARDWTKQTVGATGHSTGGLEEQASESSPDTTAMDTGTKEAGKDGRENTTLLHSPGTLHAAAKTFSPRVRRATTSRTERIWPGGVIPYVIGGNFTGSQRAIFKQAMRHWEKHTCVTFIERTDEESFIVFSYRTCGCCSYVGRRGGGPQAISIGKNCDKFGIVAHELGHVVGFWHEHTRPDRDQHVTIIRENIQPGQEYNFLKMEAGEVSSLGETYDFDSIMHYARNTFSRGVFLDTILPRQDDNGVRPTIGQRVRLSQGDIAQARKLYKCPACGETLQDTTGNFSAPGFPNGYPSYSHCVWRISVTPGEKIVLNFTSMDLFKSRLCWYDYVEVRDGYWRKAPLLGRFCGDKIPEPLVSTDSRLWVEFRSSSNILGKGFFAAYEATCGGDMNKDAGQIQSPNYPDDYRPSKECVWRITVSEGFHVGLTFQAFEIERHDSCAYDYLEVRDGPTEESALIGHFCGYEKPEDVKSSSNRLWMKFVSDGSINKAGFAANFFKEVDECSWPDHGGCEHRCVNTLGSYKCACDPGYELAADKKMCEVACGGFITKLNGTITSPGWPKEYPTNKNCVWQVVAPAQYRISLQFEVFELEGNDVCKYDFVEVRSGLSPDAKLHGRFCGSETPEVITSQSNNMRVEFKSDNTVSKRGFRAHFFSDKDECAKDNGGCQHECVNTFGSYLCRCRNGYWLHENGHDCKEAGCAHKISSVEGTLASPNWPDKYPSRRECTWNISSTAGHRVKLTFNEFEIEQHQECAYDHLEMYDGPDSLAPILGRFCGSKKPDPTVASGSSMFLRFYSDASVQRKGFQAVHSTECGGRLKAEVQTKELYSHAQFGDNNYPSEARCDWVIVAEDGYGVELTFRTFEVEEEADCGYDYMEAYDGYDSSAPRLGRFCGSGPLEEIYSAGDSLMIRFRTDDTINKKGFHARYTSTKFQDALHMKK
As to the kind of experiment: Inhibition of C-terminal Avi-6x-His epitope tagged and N-terminal human RAGE signal sequence tagged recombinant human TLL2 (26 to 1015 amino acids) expressed in CHOE1A cells incubated for 60 mins with promyostatin peptide substrate by FRET based assay. The format is cell-based.

A short description of test [3]: Reduction in PICP levels in human cardiac fibroblasts incubated for 24 to 48 hrs by ELISA. The format is functional. Summed up:
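Human cardiac fibroblasts (passage 6 or below) were seeded at 10,000 to 15,000 cells per well in 96-well plates. The next day they were treated in ficoll crowding EMEM with 100 μM ascorbic acid and under 0.3% DMSO, for 24 to 48 hr at 37° C. Procollagen I C-terminal propeptide in the medium was measured with a Quidel ELISA. IC50 came from fitting levels relative to untreated controls to a log(inhibitor)-response equation in GraphPad Prism.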

As for `CCCCC[C@@H](C(=O)NCNC(=O)c1ccc(-c2cc(OCC)cc(C(=O)NCC[N+](C)(C)C)c2)o1)[C@@H](CC)N(O)C=O`, the IC50 (as a rule, the concentration that gives 50% inhibition) in test [1] was less than 126 nM; on Tolloid-like protein 1 it was less than 398 nM; in test [2], less than 200 nM; at Tolloid-like protein 2, less than 794 nM; in test [3], less than 3980 nM.
For the compound `CCCCC[C@@H](C(=O)NCNC(=O)c1ccc(-c2cccc(C(C)(C)C(=O)O)c2)o1)[C@@H](CC)N(O)C=O`, the 50% inhibitory concentration (IC50) in test [1] was less than 126 nM; on Tolloid-like protein 1, less than 398 nM; in test [2], less than 200 nM; on Tolloid-like protein 2, less than 794 nM; in test [3] it was less than 3980 nM.
The like results for `CCCCC[C@@H](C(=O)NCNC(=O)c1ccc(-c2cc(OCC)cc(C(F)(F)C(=O)O)c2)o1)[C@@H](CC)N(O)C=O` were, in that order, less than 126 nM, less than 398 nM, less than 200 nM, less than 794 nM and less than 3980 nM.
The like results for `CCCCC[C@@H](C(=O)NCNC(=O)c1ccc(-c2cc(OCC)cc(P(=O)(OC)OC)c2)o1)[C@@H](CC)N(O)C=O` were, in that order, less than 126 nM, less than 398 nM, less than 200 nM, less than 794 nM and less than 3980 nM.
With `CCCCC[C@@H](C(=O)NCNC(=O)c1ccc(-c2cccc(C(=O)N[C@@H](CC(=O)O)C(=O)O)c2)o1)[C@@H](CC)N(O)C=O`, the IC50 in test [1] is less than 126 nM; at Tolloid-like protein 1, less than 398 nM; in test [2] it was less than 200 nM; on Tolloid-like protein 2, less than 794 nM; in test [3] it was less than 3980 nM.
For `CCCCC[C@@H](C(=O)NCNC(=O)c1ccc(-c2ccc(F)c(CC(=O)O)c2)o1)[C@@H](CC)N(O)C=O`, the IC50 is less than 126 nM in test [1]; less than 398 nM on Tolloid-like protein 1; less than 200 nM in test [2]; less than 794 nM on Tolloid-like protein 2; less than 3980 nM in test [3].
The like results for `CCCCC[C@H](CN(O)C=O)C(=O)NCNC(=O)c1ccc(-c2cccc(CC(=O)O)c2)o1` were, in that order, less than 126 nM, less than 398 nM, less than 200 nM, less than 794 nM and less than 3980 nM.
With `CCCCC[C@H](CN(O)C=O)C(=O)NCNC(=O)c1ccc(-c2ccc(F)c(C(=O)OC)c2)o1`, the half-inhibitory concentration (IC50) was less than 126 nM in test [1]; less than 398 nM at Tolloid-like protein 1; less than 200 nM in test [2]; less than 794 nM at Tolloid-like protein 2; less than 3980 nM in test [3].
On the same counts, the results for `CCCCC[C@H](CN(O)C=O)C(=O)NCNC(=O)c1ccc(-c2ccc(F)c(C(=O)O)c2F)o1` are less than 126 nM, less than 398 nM, less than 200 nM, less than 794 nM and less than 3980 nM.
Turning to `CCCCC[C@H](CN(O)C=O)C(=O)NCNC(=O)c1ccc(-c2cc(OC)ccc2OC)o1`, the half-inhibitory concentration (IC50) in test [1] was less than 126 nM; at Tolloid-like protein 1, less than 398 nM; in test [2], less than 200 nM; on Tolloid-like protein 2, less than 794 nM; in test [3], less than 3980 nM.
On the same counts, the results for `CCCCC[C@H](CN(O)C=O)C(=O)NCNC(=O)c1ccc(-c2cc(OC)cc(OC)c2)o1` are less than 126 nM, less than 398 nM, less than 200 nM, less than 794 nM and less than 3980 nM.
Regarding `CCCCC[C@H](CN(O)C=O)C(=O)NCNC(=O)c1ccc(-c2cccc(C(=O)O)c2F)o1`, the half-inhibitory concentration (IC50) was less than 126 nM in test [1]; less than 398 nM on Tolloid-like protein 1; less than 200 nM in test [2]; less than 794 nM on Tolloid-like protein 2; less than 3980 nM in test [3].
As for `CCCCC[C@@H](C(=O)NCNC(=O)c1ccc(-c2ccc(C(=O)O)cc2)o1)[C@@H](CC)N(O)C=O`, the IC50 in test [1] is less than 126 nM; at Tolloid-like protein 1, less than 398 nM; in test [2], less than 200 nM; at Tolloid-like protein 2, less than 794 nM; in test [3], less than 3980 nM.
The like results for `CCCCC[C@H](CN(O)C=O)C(=O)NCNC(=O)c1ccc(-c2ccc(O)c(C(=O)O)c2)o1` were, in that order, less than 126 nM, less than 398 nM, less than 200 nM, less than 794 nM and less than 3980 nM.
`CCCCC[C@@H](C(=O)NCNC(=O)c1ccc(-c2cc(O)cc(OCC)c2)o1)[C@@H](CC)N(O)C=O`: the IC50 is less than 126 nM in test [1]; less than 398 nM at Tolloid-like protein 1; less than 200 nM in test [2]; less than 794 nM on Tolloid-like protein 2; less than 3980 nM in test [3].
The like results for `CCCCC[C@H](CN(O)C=O)C(=O)NCNC(=O)c1ccc(-c2cccc(C(=O)O)c2C)o1` were, in that order, less than 126 nM, less than 398 nM, less than 200 nM, less than 794 nM and less than 3980 nM.
On to `CCCCC[C@H](CN(O)C=O)C(=O)NCNC(=O)c1ccc(-c2cccc(C(=O)O)c2OC)o1`, for which the IC50 in test [1] is less than 126 nM; on Tolloid-like protein 1, less than 398 nM; in test [2], less than 200 nM; on Tolloid-like protein 2, less than 794 nM; in test [3], less than 3980 nM.
With `CCCCC[C@H](CN(O)C=O)C(=O)NCNC(=O)c1ccc(-c2cccc(C(C)C(=O)O)c2)o1` (stereo not given in full), the 50% inhibitory concentration (IC50) in test [1] is less than 126 nM; on Tolloid-like protein 1 it was less than 398 nM; in test [2] it was less than 200 nM; on Tolloid-like protein 2, less than 794 nM; in test [3] it was less than 3980 nM.
On the same counts, the results for `CCCCC[C@H](CN(O)C=O)C(=O)NCNC(=O)c1ccc(-c2ccc(N)c(C(=O)O)c2)o1` are less than 126 nM, less than 398 nM, less than 200 nM, less than 794 nM and less than 3980 nM.
With `CCCCC[C@@H](C(=O)NCNC(=O)c1ccc(-c2cc(OCC)cc(C(=O)N[C@H](CC(=O)O)C(=O)O)c2)o1)[C@@H](CC)N(O)C=O`, the IC50 was less than 126 nM in test [1]; less than 398 nM at Tolloid-like protein 1; less than 200 nM in test [2]; less than 794 nM on Tolloid-like protein 2; less than 3980 nM in test [3].
